Among the data in patent US20240043427A1 (Gilead Sciences, Inc., priority 2020, published 2024) are IC50 values, retold here.

In this assay the target is CD73 (Homo sapiens (Human), UniProt P21589). It is filed as biochemical. The settings on record: 1 mM NaH2PO4 in enzyme buffer, CD73 0.3 nM, AMP 15 uM.
CD73, sequence (P21589 27-574): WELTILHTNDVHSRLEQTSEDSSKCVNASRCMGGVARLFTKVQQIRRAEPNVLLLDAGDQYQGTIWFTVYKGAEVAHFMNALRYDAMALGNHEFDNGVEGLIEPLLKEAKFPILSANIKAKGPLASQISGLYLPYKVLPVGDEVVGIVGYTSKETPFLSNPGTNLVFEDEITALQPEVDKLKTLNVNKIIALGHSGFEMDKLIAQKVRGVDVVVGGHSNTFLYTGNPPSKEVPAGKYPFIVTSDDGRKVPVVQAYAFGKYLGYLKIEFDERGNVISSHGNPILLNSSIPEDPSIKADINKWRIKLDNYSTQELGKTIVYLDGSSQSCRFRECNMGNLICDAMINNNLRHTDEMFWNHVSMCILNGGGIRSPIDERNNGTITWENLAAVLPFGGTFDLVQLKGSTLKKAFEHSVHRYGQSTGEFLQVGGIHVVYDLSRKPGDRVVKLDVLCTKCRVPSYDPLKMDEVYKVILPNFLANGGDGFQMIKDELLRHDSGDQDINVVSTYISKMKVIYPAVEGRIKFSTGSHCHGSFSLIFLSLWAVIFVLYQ
In turn, `O=c1[nH]cc(-c2cc([C@H]3C[C@@H]3c3ncc(C(F)(F)F)cn3)c3nccn3n2)c(=O)[nH]1` (racemic) [Example 377, 5-(8-((1S,2S)-2-(5-(trifluoromethyl)pyrimidin-2-yl)cyclopropyl)imidazo[1,2-b]pyridazin-6-yl)pyrimidine-2,4(1H,3H)-dione] had an IC50 of 7.66 nM.
`O=c1[nH]cc(-c2cc([C@H]3C[C@@H]3c3ncc(C(F)(F)F)cn3)c3ncc(F)n3n2)c(=O)[nH]1` (racemic) [Example 378, 5-(3-fluoro-8-((1S,2S)-2-(5-(trifluoromethyl)pyrimidin-2-yl)cyclopropyl)imidazo[1,2-b]pyridazin-6-yl)pyrimidine-2,4(1H,3H)-dione] gave an IC50 of 6.45 nM.
Next, `N#Cc1ccc([C@H]2C[C@@H]2c2cc(-c3c[nH]c(=O)[nH]c3=O)nn3ccnc23)c(F)c1` (racemic) [Example 407, 4-((1S,2S)-2-(6-(2,4-dioxo-1,2,3,4-tetrahydropyrimidin-5-yl)imidazo[1,2-b]pyridazin-8-yl)cyclopropyl)-3-fluorobenzonitrile]: 1.9 nM; `N#Cc1cccc([C@H]2C[C@@H]2c2cc(-c3c[nH]c(=O)[nH]c3=O)nn3ccnc23)c1F` (racemic) [Example 408, 3-((1S,2S)-2-(6-(2,4-dioxo-1,2,3,4-tetrahydropyrimidin-5-yl)imidazo[1,2-b]pyridazin-8-yl)cyclopropyl)-2-fluorobenzonitrile]: 2.35 nM.
Regarding `N#Cc1ccc([C@H]2C[C@@H]2c2cc(-c3c[nH]c(=O)[nH]c3=O)nn3ccnc23)cc1C(F)(F)F` (racemic) [Example 411, 4-((1S,2S)-2-(6-(2,4-dioxo-1,2,3,4-tetrahydropyrimidin-5-yl)imidazo[1,2-b]pyridazin-8-yl)cyclopropyl)-2-(trifluoromethyl)benzonitrile], 6.11 nM corresponded to half-maximal inhibition (IC50).
In the case of `N#Cc1cc([C@H]2C[C@@H]2c2cc(-c3c[nH]c(=O)[nH]c3=O)nn3ccnc23)ccc1C(F)(F)F` (racemic) [Example 412, 5-((1S,2S)-2-(6-(2,4-dioxo-1,2,3,4-tetrahydropyrimidin-5-yl)imidazo[1,2-b]pyridazin-8-yl)cyclopropyl)-2-(trifluoromethyl)benzonitrile], 6 nM corresponded to half-maximal inhibition (IC50).
`N#Cc1ccc([C@H]2C[C@@H]2c2cc(-c3c[nH]c(=O)[nH]c3=O)nn3ccnc23)cc1OC(F)(F)F` (racemic) [Example 413, 4-((1S,2S)-2-(6-(2,4-dioxo-1,2,3,4-tetrahydropyrimidin-5-yl)imidazo[1,2-b]pyridazin-8-yl)cyclopropyl)-2-(trifluoromethoxy)benzonitrile]: the IC50 amounted to 3.01 nM.
`N#Cc1cc([C@H]2C[C@@H]2c2cc(-c3c[nH]c(=O)[nH]c3=O)nn3ccnc23)ccc1OC(F)(F)F` (racemic) [Example 414, 5-((1S,2S)-2-(6-(2,4-dioxo-1,2,3,4-tetrahydropyrimidin-5-yl)imidazo[1,2-b]pyridazin-8-yl)cyclopropyl)-2-(trifluoromethoxy)benzonitrile] yielded an IC50 of 2.84 nM.
`O=c1[nH]cc(-c2cc(N3CC(Oc4ccc(C(F)(F)F)cn4)C(F)(F)C3)c3ncnn3n2)c(=O)[nH]1` (racemic) [Example 432, 5-(8-(3,3-difluoro-4-((5-(trifluoromethyl)pyridin-2-yl)oxy)pyrrolidin-1-yl)-[1,2,4]triazolo[1,5-b]pyridazin-6-yl)pyrimidine-2,4(1H,3H)-dione] came in with an IC50 of 0.15 nM.
Compound `O=c1[nH]cc(-c2cc(N3CCC(CC(F)(F)F)C3)c3nccn3n2)c(=O)[nH]1` (racemic) [Example 452, 5-(8-(3-(2,2,2-trifluoroethyl)pyrrolidin-1-yl)imidazo[1,2-b]pyridazin-6-yl)pyrimidine-2,4(1H,3H)-dione] came in with an IC50 of 95.3 nM.
The compound `O=c1[nH]cc(-c2cc(N3CCC(CC(F)F)C3)c3nccn3n2)c(=O)[nH]1` (racemic) [Example 453, 5-(8-(3-(2,2-difluoroethyl)pyrrolidin-1-yl)imidazo[1,2-b]pyridazin-6-yl)pyrimidine-2,4(1H,3H)-dione] had an IC50 of 76 nM.
For `O=c1[nH]cc(-c2cc([C@H]3C[C@@H]3c3nc4ccccc4[nH]3)c3nccn3n2)c(=O)[nH]1` (racemic) [Example 461, 5-(8-((1S,2S)-2-(1H-benzo[d]imidazol-2-yl)cyclopropyl)imidazo[1,2-b]pyridazin-6-yl)pyrimidine-2,4(1H,3H)-dione], the IC50 was determined as 2.56 nM.
Next, `O=C(Nc1ccccc1)[C@H]1C[C@@H]1c1cc(-c2c[nH]c(=O)[nH]c2=O)nn2ccnc12` (racemic) [Example 462, (1S,2S)-2-(6-(2,4-dioxo-1,2,3,4-tetrahydropyrimidin-5-yl)imidazo[1,2-b]pyridazin-8-yl)-N-phenylcyclopropane-1-carboxamide]: 9.39 nM.
The value for `CC(C)(O)[C@H]1C[C@@H]1c1cc(-c2c[nH]c(=O)[nH]c2=O)nn2ccnc12` (racemic) [Example 463, 5-(8-((1S,2S)-2-(2-hydroxypropan-2-yl)cyclopropyl)imidazo[1,2-b]pyridazin-6-yl)pyrimidine-2,4(1H,3H)-dione] was 61.9 nM; that for `O=c1[nH]cc(-c2cc([C@H]3C[C@@H]3c3ccc(F)c(F)c3F)c3nccn3n2)c(=O)[nH]1` (racemic) [Example 464, 5-(8-((1S,2S)-2-(2,3,4-trifluorophenyl)cyclopropyl)imidazo[1,2-b]pyridazin-6-yl)pyrimidine-2,4(1H,3H)-dione] was 1.47 nM.
The value for `N#Cc1ccc(F)c([C@H]2C[C@@H]2c2cc(-c3c[nH]c(=O)[nH]c3=O)nn3ccnc23)c1` (racemic) [Example 466, 3-((1S,2S)-2-(6-(2,4-dioxo-1,2,3,4-tetrahydropyrimidin-5-yl)imidazo[1,2-b]pyridazin-8-yl)cyclopropyl)-4-fluorobenzonitrile] was 3.47 nM.
Regarding `O=c1[nH]cc(-c2cc([C@H]3C[C@@H]3c3c(F)ccc(F)c3F)c3nccn3n2)c(=O)[nH]1` (racemic) [Example 468, 5-(8-((1S,2S)-2-(2,3,6-trifluorophenyl)cyclopropyl)imidazo[1,2-b]pyridazin-6-yl)pyrimidine-2,4(1H,3H)-dione], it took 1.67 nM to reach half-maximal inhibition (IC50).
`O=c1[nH]cc(-c2cc([C@H]3C[C@@H]3c3cc4c(cn3)cnn4CC(F)(F)F)c3ncc(Cl)n3n2)c(=O)[nH]1` (racemic) [Example 471, 5-(3-chloro-8-((1S,2S)-2-(1-(2,2,2-trifluoroethyl)-1H-pyrazolo[4,3-c]pyridin-6-yl)cyclopropyl)imidazo[1,2-b]pyridazin-6-yl)pyrimidine-2,4(1H,3H)-dione] had an IC50 of 0.7 nM.
As for `CC1(C)C(=O)N(CC(F)(F)F)c2cc([C@H]3C[C@@H]3c3cc(-c4c[nH]c(=O)[nH]c4=O)nn4ccnc34)ncc21` (racemic) [Example 718, 5-[8-[(1S,2S)-2-[3,3-dimethyl-2-oxo-1-(2,2,2-trifluoroethyl)pyrrolo[3,2-c]pyridin-6-yl]cyclopropyl]imidazo[1,2-b]pyridazin-6-yl]-1H-pyrimidine-2,4-dione], half-maximal inhibition (IC50) was put at 3.07 nM.
On to `O=c1[nH]cc(-c2cc([C@H]3C[C@@H]3c3cc(OCC(F)(F)F)c4ncccc4c3)c3nccn3n2)c(=O)[nH]1` (racemic) [Example 732, 5-(8-((1S,2S)-2-(8-(2,2,2-trifluoroethoxy)quinolin-6-yl)cyclopropyl)imidazo[1,2-b]pyridazin-6-yl)pyrimidine-2,4(1H,3H)-dione], for which the IC50 was found to be 2.66 nM.
`O=C1N(CC2(F)CC2)c2cc([C@H]3C[C@@H]3c3cc(-c4c[nH]c(=O)[nH]c4=O)nn4c(F)cnc34)ccc2C12CC2` (racemic) [Example 735, 5-(3-fluoro-8-((1S,2S)-2-(1′-((1-fluorocyclopropyl)methyl)-2′-oxospiro[cyclopropane-1,3′-indolin]-6′-yl)cyclopropyl)imidazo[1,2-b]pyridazin-6-yl)pyrimidine-2,4(1H,3H)-dione] showed an IC50 of 2.94 nM.
Turning to `O=C1N(CC(F)(F)F)c2cc([C@H]3C[C@@H]3c3cc(-c4c[nH]c(=O)[nH]c4=O)nn4ccnc34)c(F)cc2C12CC2` (racemic) [Example 748, 5-(8-((1S,2S)-2-(5′-fluoro-2′-oxo-1′-(2,2,2-trifluoroethyl)spiro[cyclopropane-1,3′-indolin]-6′-yl)cyclopropyl)imidazo[1,2-b]pyridazin-6-yl)pyrimidine-2,4(1H,3H)-dione], the IC50 was 2.5 nM.
In turn, `O=C1N(CC(F)(F)F)c2cc([C@H]3C[C@@H]3c3cc(-c4c[nH]c(=O)[nH]c4=O)nn4ccnc34)ccc2C12CC2` (single isomer, unassigned) [Example 391] had an IC50 of 1.01 nM.
`O=C(c1ccc([C@H]2C[C@@H]2c2cc(-c3c[nH]c(=O)[nH]c3=O)nn3c(F)cnc23)cc1)N1CC(F)(F)C1` [Example 313, 5-(8-((1S,2S)-2-(4-(3,3-difluoroazetidine-1-carbonyl)phenyl)cyclopropyl)-3-fluoroimidazo[1,2-b]pyridazin-6-yl)pyrimidine-2,4(1H,3H)-dione] showed an IC50 of 2.35 nM.
`O=c1[nH]cc(-c2cc([C@H]3C[C@@H]3c3cnn(C(F)F)c3)c3ncc(F)n3n2)c(=O)[nH]1` [Example 371, 5-(8-((1S,2S)-2-(1-(difluoromethyl)-1H-pyrazol-4-yl)cyclopropyl)-3-fluoroimidazo[1,2-b]pyridazin-6-yl)pyrimidine-2,4(1H,3H)-dione] gave an IC50 of 4.95 nM.
As to `O=c1[nH]cc(-c2cc([C@H]3C[C@@H]3c3ccc(OC(F)(F)F)cn3)c3nccn3n2)c(=O)[nH]1` [Example 373, 5-(8-((1S,2S)-2-(5-(trifluoromethoxy)pyridin-2-yl)cyclopropyl)imidazo[1,2-b]pyridazin-6-yl)pyrimidine-2,4(1H,3H)-dione], half-maximal inhibition (IC50) was put at 2.56 nM.
For the compound `O=c1[nH]cc(-c2cc([C@H]3C[C@@H]3c3cc4c(cn3)cnn4CC(F)(F)F)c3ncc(F)n3n2)c(=O)[nH]1` [Example 611, 5-(3-fluoro-8-((1S,2S)-2-(1-(2,2,2-trifluoroethyl)-1H-pyrazolo[4,3-c]pyridin-6-yl)cyclopropyl)imidazo[1,2-b]pyridazin-6-yl)pyrimidine-2,4(1H,3H)-dione], the IC50 turned out to be 0.4 nM.

By IC50 is commonly meant the concentration at which inhibition is half-maximal. A lower IC50 goes with inhibition by little substance.
